This note sets out measurements from patent US11117900B2 (Vertex Pharmaceuticals Incorporated, priority 2012, dated 2021).

The test relates to HCT116 colorectal cancer cells. The experiment in a line: Cisplatin sensitization assay (96 h MTS cell viability).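 Note: compound concentration needed to lower the IC50 of Cisplatin alone by a set fold.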 It counts as cell-based. To be noted: Cisplatin sensitization value. In outline:
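The MTS viability read, after 1 h with reagent, followed 96 h of co-treatment at 37° C. in 5% CO2. Both compound and cisplatin were titrated 2-fold from a 10 μM top final concentration in a complete concentration matrix on HCT116 cells. Scores +++/++/+ reflect cisplatin sensitization value ranges.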
On to `CC(C)(C)N1CCN(c2ccncc2NC(=O)c2c(N)nn3cc(Cl)cnc23)CC1` [I-N-34, 2-amino-N-(4-(4-(tert-butyl)piperazin-1-yl)pyridin-3-yl)-6-chloropyrazolo[1,5-a]pyrimidine-3-carboxamide], for which the “Cisplatin Sensitization Assay” value is “++ (Compounds with a Cisplatin sensitization value >0.02 μM but <0.2 μM are marked with “++.”)”.

`CCC(C#N)c1cnc2c(C(=O)Nc3cnccc3OC)c(N)nn2c1` (stereo not shown) [I-O-20, 2-amino-6-(1-cyanopropyl)-N-(4-methoxypyridin-3-yl)pyrazolo[1,5-a]pyrimidine-3-carboxamide]: the “Cisplatin Sensitization Assay” value is listed as “++ (Compounds with a Cisplatin sensitization value >0.02 μM but <0.2 μM are marked with “++.”)”.

`Nc1nn2cc(F)cnc2c1C(=O)Nc1cncc(F)c1N1CCC(C(=O)NC2COC2)CC1` [I-G-37, 2-amino-6-fluoro-N-(5-fluoro-4-(4-(oxetan-3-ylcarbamoyl)piperidin-1-yl)pyridin-3-yl)pyrazolo[1,5-a]pyrimidine-3-carboxamide]: the “Cisplatin Sensitization Assay” value is reported as “++ (Compounds with a Cisplatin sensitization value >0.02 μM but <0.2 μM are marked with “++.”)”.

In the case of `Nc1nn2cc(Cl)cnc2c1C(=O)Nc1cnccc1N1CCC(N2CC[S+]([O-])CC2)CC1` [I-N-100, 2-amino-6-chloro-N-(4-(4-(1-oxidothiomorpholino)piperidin-1-yl)pyridin-3-yl)pyrazolo[1,5-a]pyrimidine-3-carboxamide], the “Cisplatin Sensitization Assay” value was “++ (Compounds with a Cisplatin sensitization value >0.02 μM but <0.2 μM are marked with “++.”)”. For `Cc1nc(C)n(-c2ccncc2NC(=O)c2c(N)nn3cc(F)cnc23)n1` [I-N-218, 2-amino-N-(4-(3,5-dimethyl-1H-1,2,4-triazol-1-yl)pyridin-3-yl)-6-fluoropyrazolo[1,5-a]pyrimidine-3-carboxamide] the value was “+ (Compounds with a Cisplatin sensitization value >0.2 μM but <5 μM are marked with “+.”)”; for `Nc1nn2cc(F)cnc2c1C(=O)Nc1cncc(Cl)c1N1CCC(O)C1` (stereo not shown) [I-N-284, 2-amino-N-(5-chloro-4-(3-hydroxypyrrolidin-1-yl)pyridin-3-yl)-6-fluoropyrazolo[1,5-a]pyrimidine-3-carboxamide], “+++ (Compounds with a Cisplatin sensitization value of <0.02 μM are marked with “+++.”)”.

Turning to `CC1(N2CCN(C(=O)C3CCN(c4c(F)cncc4NC(=O)c4c(N)nn5cc(F)cnc45)CC3)CC2)COC1` [I-G-92, 2-amino-6-fluoro-N-(5-fluoro-4-(4-(4-(3-methyloxetan-3-yl)piperazine-1-carbonyl)piperidin-1-yl)pyridin-3-yl)pyrazolo[1,5-a]pyrimidine-3-carboxamide], the “Cisplatin Sensitization Assay” value is listed as “+++ (Compounds with a Cisplatin sensitization value of <0.02 μM are marked with “+++.”)”. For `N#CCc1cnc2c(C(=O)Nc3cnccc3N3CCOCC3)c(N)nn2c1` [I-N-81, 2-amino-6-(cyanomethyl)-N-(4-morpholinopyridin-3-yl)pyrazolo[1,5-a]pyrimidine-3-carboxamide] the value was “+++ (Compounds with a Cisplatin sensitization value of <0.02 μM are marked with “+++.”)”; for `Cc1cc(C(=O)N2CCN(C)CC2)ccc1-c1ccncc1NC(=O)c1c(N)nn2cc(F)cnc12` [I-C-45, 2-amino-6-fluoro-N-(4-(2-methyl-4-(4-methylpiperazine-1-carbonyl)phenyl)pyridin-3-yl)pyrazolo[1,5-a]pyrimidine-3-carboxamide], “+++ (Compounds with a Cisplatin sensitization value of <0.02 μM are marked with “+++.”)”.

Take `Nc1nn2cc(F)cnc2c1C(=O)Nc1cnccc1N1CCN(CC(F)(F)F)CC1` [I-N-20, 2-amino-6-fluoro-N-(4-(4-(2,2,2-trifluoroethyl)piperazin-1-yl)pyridin-3-yl)pyrazolo[1,5-a]pyrimidine-3-carboxamide]: the “Cisplatin Sensitization Assay” value is “+++ (Compounds with a Cisplatin sensitization value of <0.02 μM are marked with “+++.”)”. For `Cc1cncn1-c1ccncc1NC(=O)c1c(N)nn2cc(F)cnc12` [I-N-283, 2-amino-6-fluoro-N-(4-(5-methyl-1H-imidazol-1-yl)pyridin-3-yl)pyrazolo[1,5-a]pyrimidine-3-carboxamide] the value was “++ (Compounds with a Cisplatin sensitization value >0.02 μM but <0.2 μM are marked with “++.”)”; for `CN1CCN(c2c(F)cncc2NC(=O)c2c(N)nn3cc(F)cnc23)CC1` [I-N-15, 2-amino-6-fluoro-N-(5-fluoro-4-(4-methylpiperazin-1-yl)pyridin-3-yl)pyrazolo[1,5-a]pyrimidine-3-carboxamide], “+++ (Compounds with a Cisplatin sensitization value of <0.02 μM are marked with “+++.”)”; for `N#CCc1cnc2c(C(=O)Nc3cnccc3OC3CCC3)c(N)nn2c1` [I-O-36, 2-amino-6-(cyanomethyl)-N-(4-cyclobutoxypyridin-3-yl)pyrazolo[1,5-a]pyrimidine-3-carboxamide], “+++ (Compounds with a Cisplatin sensitization value of <0.02 μM are marked with “+++.”)”. The result for `CN1CC[C@@H](OC2CCN(c3c(F)cncc3NC(=O)c3c(N)nn4cc(F)cnc34)CC2)C1` [I-N-132, (R)-2-amino-6-fluoro-N-(5-fluoro-4-(4-((1-methylpyrrolidin-3-yl)oxy)piperidin-1-yl)pyridin-3-yl)pyrazolo[1,5-a]pyrimidine-3-carboxamide] reads “+++ (Compounds with a Cisplatin sensitization value of <0.02 μM are marked with “+++.”)”; that for `CC1CN(c2ccncc2NC(=O)c2c(N)nn3cc(Cl)cnc23)CCN1C` (stereo not shown) [I-N-54, 2-amino-6-chloro-N-(4-(3,4-dimethylpiperazin-1-yl)pyridin-3-yl)pyrazolo[1,5-a]pyrimidine-3-carboxamide], “+++ (Compounds with a Cisplatin sensitization value of <0.02 μM are marked with “+++.”)”. For `CN1CCN(c2c(NC(=O)c3c(N)nn4cc(F)cnc34)cncc2C2CC2)CC1` [I-N-5, 2-amino-N-(5-cyclopropyl-4-(4-methylpiperazin-1-yl)pyridin-3-yl)-6-fluoropyrazolo[1,5-a]pyrimidine-3-carboxamide], the “Cisplatin Sensitization Assay” value is “++ (Compounds with a Cisplatin sensitization value >0.02 μM but <0.2 μM are marked with “++.”)”.

Take `CN(C)CCOc1cc(C(F)(F)F)ncc1NC(=O)c1c(N)nn2cc(Cl)cnc12` [I-O-71, 2-amino-6-chloro-N-(4-(2-(dimethylamino)ethoxy)-6-(trifluoromethyl)pyridin-3-yl)pyrazolo[1,5-a]pyrimidine-3-carboxamide]: the “Cisplatin Sensitization Assay” value was “+ (Compounds with a Cisplatin sensitization value >0.2 μM but <5 μM are marked with “+.”)”. With `CNCCc1cnn(-c2ccncc2NC(=O)c2c(N)nn3cc(F)cnc23)c1` [I-N-8, 2-amino-6-fluoro-N-(4-(4-(2-(methylamino)ethyl)-1H-pyrazol-1-yl)pyridin-3-yl)pyrazolo[1,5-a]pyrimidine-3-carboxamide], the “Cisplatin Sensitization Assay” value was “+ (Compounds with a Cisplatin sensitization value >0.2 μM but <5 μM are marked with “+.”)”. In the case of `Cn1ccc2cncc(NC(=O)c3c(N)nn4cc(F)cnc34)c21` [I-N-259, 2-amino-6-fluoro-N-(1-methyl-1H-pyrrolo[3,2-c]pyridin-7-yl)pyrazolo[1,5-a]pyrimidine-3-carboxamide], the “Cisplatin Sensitization Assay” value is listed as “+ (Compounds with a Cisplatin sensitization value >0.2 μM but <5 μM are marked with “+.”)”. Turning to `Nc1nn2cc(F)cnc2c1C(=O)Nc1cncc(F)c1N1CCC(C(=O)N2CCN3CCC2CC3)CC1` [I-G-7, N-(4-(4-(1,4-diazabicyclo[3.2.2]nonane-4-carbonyl)piperidin-1-yl)-5-fluoropyridin-3-yl)-2-amino-6-fluoropyrazolo[1,5-a]pyrimidine-3-carboxamide], the “Cisplatin Sensitization Assay” value is recorded as “+++ (Compounds with a Cisplatin sensitization value of <0.02 μM are marked with “+++.”)”. `Nc1nn2cc(F)cnc2c1C(=O)Nc1cnccc1N1CCC(C(=O)N2CC(F)(F)C2)CC1` [I-G-80, 2-amino-N-(4-(4-(3,3-difluoroazetidine-1-carbonyl)piperidin-1-yl)pyridin-3-yl)-6-fluoropyrazolo[1,5-a]pyrimidine-3-carboxamide]: the “Cisplatin Sensitization Assay” value is “+++ (Compounds with a Cisplatin sensitization value of <0.02 μM are marked with “+++.”)”. Consider `N#CCc1cnc2c(C(=O)Nc3cnccc3OC3CCCC3)c(N)nn2c1` [I-O-43, 2-amino-6-(cyanomethyl)-N-(4-(cyclopentyloxy)pyridin-3-yl)pyrazolo[1,5-a]pyrimidine-3-carboxamide], for which the “Cisplatin Sensitization Assay” value is listed as “+++ (Compounds with a Cisplatin sensitization value of <0.02 μM are marked with “+++.”)”. Regarding `Nc1nn2cc(F)cnc2c1C(=O)Nc1cncc(F)c1N1CCN2CCOC[C@H]2C1` [I-N-135, (R)-2-amino-6-fluoro-N-(5-fluoro-4-(hexahydropyrazino[2,1-c][1,4]oxazin-8(1H)-yl)pyridin-3-yl)pyrazolo[1,5-a]pyrimidine-3-carboxamide], the “Cisplatin Sensitization Assay” value is “+++ (Compounds with a Cisplatin sensitization value of <0.02 μM are marked with “+++.”)”. For `CN1CCC[C@@H]1C(=O)N1CCN(c2c(F)cncc2NC(=O)c2c(N)nn3cc(F)cnc23)CC1` [I-N-181, (R)-2-amino-6-fluoro-N-(5-fluoro-4-(4-(1-methylpyrrolidine-2-carbonyl)piperazin-1-yl)pyridin-3-yl)pyrazolo[1,5-a]pyrimidine-3-carboxamide] the value was “+++ (Compounds with a Cisplatin sensitization value of <0.02 μM are marked with “+++.”)”; for `Nc1nn2cc(F)cnc2c1C(=O)Nc1cncc(F)c1N1CCN2C(=O)CCC2C1` (stereo not shown) [I-N-163, 2-amino-6-fluoro-N-(5-fluoro-4-(6-oxohexahydropyrrolo[1,2-a]pyrazin-2(1H)-yl)pyridin-3-yl)pyrazolo[1,5-a]pyrimidine-3-carboxamide], “+++ (Compounds with a Cisplatin sensitization value of <0.02 μM are marked with “+++.”)”.
